Experimental data from the SangsterLogP compilation.

Test: method code SF, from DOI: 10.1246/bcsj.55.1489
Conditions: pH 7.0

| logD | Compound |
| --- | --- |
| 1.53 | COc1cc(-n2nc(C)cc2OC)ncn1 |
| 0.73 | COc1cc(C)nn1-c1nc(C)cc(C)n1 |
| 2.21 | COc1cc(C)n(-c2ccncn2)n1 |
| 1.86 | COc1cc(-n2nc(C)cc2OC)nc(OC)n1 |
| 0.3 | COc1cc(-n2c(=O)cc(C)n2C)ncn1 |
| 0.5 | COc1cc(C)nn1-c1ccncn1 |
| 1.01 | COc1ccnc(-n2nc(C)cc2OC)n1 |

The next lines start with the molecule.

| Compound | logD |
| --- | --- |
| Cc1cc(-n2c(=O)cc(C)n2C)nc(C)n1 | 0.24 |
| COc1cc(C)n(-c2nc(C)cc(C)n2)n1 | 1.82 |
| COc1cc(-n2c(=O)cc(C)n2C)nc(C)n1 | 0.7 |
| COc1cc(-n2c(C)cc(=O)n2C)nc(C)n1 | 0.38 |
| Cc1cc(C)nc(-n2c(C)cc(=O)n2C)n1 | 0.51 |
| COc1nc(C)cc(-n2[nH]c(C)cc2=O)n1 | 1.03 |
